# Literature values, collected in patent EP4537663A1, “INCLUSION COMPLEX COMPRISING TRYPTOPHAN AND ARGININE; FERTILISING, BIOSTIMULANT AND ANTIMICROBIAL COMPOSITION COMPRISING SAME; PRODUCTION METHOD THEREOF; AND USE THEREOF” (Universidad de Valladolid, priority 2022, dated 2023).
# Conditions: at 25°C
structure (smiles),measurement,value
N[C@@H](Cc1c[nH]c2ccccc12)C(=O)O [tryptophan],solubility in water,~11.4 mg/mL
